From patent publication US20240002438A1, “MELANOCORTIN LIGANDS AND METHODS OF USE THEREOF” (REGENTS OF THE UNIVERSITY OF MINNESOTA, priority 2021, published 2024) come the findings set out here.

In experiment [1] the target is T1, mMC3R (Mus musculus, UniProt P33033). In words: mMC3R | Antagonist Potency Ki (nM). Further details: expressed in transfected cells; host or cells: HEK293. From the text: (§1) Table printed on a drawing sheet, FIGURE 18
(§2) Title: Tetrapeptide Antagonist Pharmacology at the Mouse Melanocortin Receptors.^a
Head of the field: mMC3R | Antagonist Potency Ki (nM)
(§3) First copying reader's note: Columns 4 and 7 are empty spacer columns as printed; the table runs off the bottom of the sheet (continued on the next sheet) and footnotes a and b are not printed here.
Target sequence in this assay (P33033 whole entry, looked up): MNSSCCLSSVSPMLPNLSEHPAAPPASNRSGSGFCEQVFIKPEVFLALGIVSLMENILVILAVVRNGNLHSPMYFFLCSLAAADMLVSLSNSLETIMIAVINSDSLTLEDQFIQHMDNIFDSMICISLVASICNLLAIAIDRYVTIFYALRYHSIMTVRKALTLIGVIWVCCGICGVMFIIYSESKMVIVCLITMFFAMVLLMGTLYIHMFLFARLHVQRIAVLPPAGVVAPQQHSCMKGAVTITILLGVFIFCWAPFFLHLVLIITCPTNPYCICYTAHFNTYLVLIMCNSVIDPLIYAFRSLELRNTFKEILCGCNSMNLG

In experiment [2] the target is T2, mMC4R (Mus musculus, UniProt P56450). Nature of the experiment: mMC4R | Antagonist Potency Ki (nM). Further details: expressed in transfected cells; host or cells: HEK293.
From the text: as §1, §2
Target sequence in this assay (P56450 whole entry, looked up): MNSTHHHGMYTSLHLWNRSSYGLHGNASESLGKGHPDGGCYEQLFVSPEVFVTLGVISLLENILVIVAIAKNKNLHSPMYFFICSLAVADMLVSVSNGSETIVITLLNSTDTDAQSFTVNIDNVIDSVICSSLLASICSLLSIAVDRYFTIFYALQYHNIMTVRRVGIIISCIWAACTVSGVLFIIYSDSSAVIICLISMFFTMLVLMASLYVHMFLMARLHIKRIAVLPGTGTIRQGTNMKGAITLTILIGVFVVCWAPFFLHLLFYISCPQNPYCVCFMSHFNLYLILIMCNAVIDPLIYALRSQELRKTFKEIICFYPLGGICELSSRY
Head of the field: mMC4R | Antagonist Potency Ki (nM)
as §3

Experiment [3] has as its target T2, mMC4R. Nature of the experiment: cAMP AlphaScreen antagonist assay at mMC4R, NDP-MSH as agonist, HEK293 cells. To be noted: NDP-MSH as agonist; HEK293 cells stably expressing mMC4R. For orientation: In Alpha technology, singlet oxygen from a donor bead excites a nearby acceptor bead.
Target sequence in this assay (P56450 whole entry): as the sequence (P56450 whole entry, looked up) above
Experimental: (§4) Following stimulation, streptavidin donor beads (0.5 μg) and biotinylated-cAMP (0.62 μmol) were added to the wells in a green light environment with 10 μL of lysis buffer (5 mM HEPES, 0.3% Tween-20, 0.1% BSA, pH=7.4) and the plates were incubated in the dark at room temperature for an additional 2 h. Plates were read on a Enspire (PerkinElmer) Alpha-plate reader using a pre-normalized assay protocol (set by the manufacturer).
Experiment [4] addresses T1, mMC3R. In words: cAMP AlphaScreen antagonist assay at mMC3R, NDP-MSH as agonist, HEK293 cells. The conditions noted are these: for mMC3R antagonist activity: at the concentrations assayed.
Target sequence in this assay (P33033 whole entry): as the sequence (P33033 whole entry, looked up) above
Another experiment addresses mMC5R (Mus musculus, UniProt P41149). In words: cAMP AlphaScreen agonist assay at mMC5R, HEK293 cells. The conditions noted are these: for mMC5R agonist activity: up to 100 μM; for mMC5R partial stimulation, % of the maximal NDP-MSH signal: 100 μM.

As a reminder, the Ki is a measure of affinity in units of concentration, obtained from inhibition or displacement. A low value points to higher affinity. The EC50 is the concentration needed to bring the measured effect to its halfway point.

Where two headings read alike, the source gives them in different places. Where a SMILES comes first, the peptide text is derived from it. [ ]: non-standard residue; d: D form. dPhe(4-I) = N[C@H](Cc1ccc(I)cc1)C(=O)O; 2Nal = N[C@@H](Cc1ccc2ccccc2c1)C(=O)O; d2Nal = N[C@H](Cc1ccc2ccccc2c1)C(=O)O

mMC5R, sequence (P41149 whole entry): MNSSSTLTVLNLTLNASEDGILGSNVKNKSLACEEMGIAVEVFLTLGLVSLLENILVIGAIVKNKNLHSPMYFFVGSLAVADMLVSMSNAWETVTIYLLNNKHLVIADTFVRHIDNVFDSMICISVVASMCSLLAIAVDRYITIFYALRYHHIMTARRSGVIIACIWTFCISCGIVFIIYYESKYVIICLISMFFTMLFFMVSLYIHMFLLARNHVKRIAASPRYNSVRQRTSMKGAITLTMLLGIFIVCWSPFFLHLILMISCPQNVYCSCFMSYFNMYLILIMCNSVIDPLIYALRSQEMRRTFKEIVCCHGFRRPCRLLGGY
Experimental for mMC5R: as §4

Take `CC(=O)N[C@H](Cc1ccc2ccccc2c1)C(=O)N[C@@H](CCCNC(=N)N)C(=O)N[C@@H](Cc1c[nH]c2ccccc12)C(=O)N[C@H](CCCCN)C(N)=O` [16 | COR1-29-6, Ac-DNal(2’)-Arg-Trp-DLys-NH2] (Ac-[d2Nal]RW[dK]-NH2): the Ki stood at 3200 nM at mMC3R [1] and 20 nM at mMC4R [2].

For `CC(=O)N[C@H](Cc1ccc2ccccc2c1)C(=O)N[C@@H](CCCNC(=N)N)C(=O)N[C@@H](Cc1c[nH]c2ccccc12)C(=O)N[C@@H](CCCNC(=N)N)C(N)=O` [18 | MDE10-27, Ac-DNal(2’)-Arg-Trp-Arg-NH2] (Ac-[d2Nal]RWR-NH2), the Ki on mMC3R [1] came to 160 nM; at mMC4R [2] it was 5 nM. `CC(=O)N[C@H](Cc1ccc2ccccc2c1)C(=O)N[C@@H](CCCNC(=N)N)C(=O)N[C@@H](Cc1ccc2ccccc2c1)C(=O)N[C@H](Cc1ccc2ccccc2c1)C(N)=O` [23 | COR2-33, Ac-DNal(2’)-Arg-Nal(2’)-DNal(2’)-NH2] (Ac-[d2Nal]R[2Nal][d2Nal]-NH2) came in with a Ki on mMC4R [2] of 200 nM. In other words, the sub-micromolar range. In the case of `CC(=O)N[C@H](Cc1ccc2ccccc2c1)C(=O)N[C@@H](CCCNC(=N)N)C(=O)N[C@H](Cc1ccc2ccccc2c1)C(=O)N[C@@H](CCCNC(=N)N)C(N)=O` [15 | COR2-93, Ac-DNal(2’)-Arg-DNal(2’)-Arg-NH2] (Ac-[d2Nal]R[d2Nal]R-NH2), the Ki was determined as 790 nM at mMC3R [1] and 5 nM on mMC4R [2].

Turning to `CC(=O)N[C@H](Cc1ccc2ccccc2c1)C(=O)N[C@@H](CCCNC(=N)N)C(=O)N[C@H](Cc1ccc2ccccc2c1)C(=O)N[C@H](Cc1ccc2ccccc2c1)C(N)=O` [14 | COR2-57, Ac-DNal(2’)-Arg-DNal(2’)-DNal(2’)-NH2] (Ac-[d2Nal]R[d2Nal][d2Nal]-NH2), the Ki at mMC3R [1] came to 2000 nM; at mMC4R [2], 500 nM. Take `CC(=O)N[C@H](Cc1ccc2ccccc2c1)C(=O)N[C@@H](CCCNC(=N)N)C(=O)N[C@@H](Cc1ccc2ccccc2c1)C(=O)N[C@@H](CCCNC(=N)N)C(N)=O` [24 | MDE10-28, Ac-DNal(2’)-Arg-Nal(2’)-Arg-NH2] (Ac-[d2Nal]R[2Nal]R-NH2): the Ki turned out to be 100 nM on mMC3R [1] and 1.6 nM on mMC4R [2]. As for Ac-[d2Nal]RW[dK]-NH2 [compound 16], the “mMC4R antagonist pA2” value at mMC4R [3] was determined as 7.7. For the compound Ac-[d2Nal]R[2Nal]R-NH2 [compound 24], the “mMC4R antagonist pA2” value at mMC4R [3] was determined as 8.8. In the case of `CC(=O)N[C@H](Cc1ccc2ccccc2c1)C(=O)N[C@H](Cc1ccc2ccccc2c1)C(=O)N[C@H](Cc1ccc2ccccc2c1)C(=O)N[C@@H](CCCNC(=N)N)C(N)=O` [compound 3, Ac-DNal(2′)-DNal(2′)-DNal(2′)-Arg-NH2] (Ac-[d2Nal][d2Nal][d2Nal]R-NH2), at mMC3R [4], the “mMC3R antagonist activity” value is listed as “did not act as antagonists”. Also, on mMC5R, the EC50 lay in the range of 30 to 800 nM and the “mMC5R agonist activity” value is “full mMC5R agonists”. For the same compound, the EC50 on mMC5R (read-out: mMC5R agonist EC50) was 130 nM. Take `CC(=O)N[C@H](Cc1ccc2ccccc2c1)C(=O)N[C@@H](CCCNC(=N)N)C(=O)N[C@H](Cc1ccc(I)cc1)C(=O)N[C@H](Cc1ccc2ccccc2c1)C(N)=O` [20 | COR2-15, Ac-DNal(2’)-Arg-DPhe(pI)-DNal(2’)-NH2] (Ac-[d2Nal]R[dPhe(4-I)][d2Nal]-NH2): the Ki at mMC3R [1] stood at 790 nM; at mMC4R [2], 320 nM.

With `CC(=O)N[C@H](Cc1ccc(I)cc1)C(=O)N[C@H](Cc1ccc2ccccc2c1)C(=O)N[C@H](Cc1ccc2ccccc2c1)C(=O)N[C@@H](CCCNC(=N)N)C(N)=O` [compound 27, Ac-DPhe(pI)-DNal(2′)-DNal(2′)-Arg-NH2] (Ac-[dPhe(4-I)][d2Nal][d2Nal]R-NH2), the “mMC3R antagonist activity” value at mMC3R [4] is listed as “did not act as antagonists”. The “mMC5R agonist activity” value at mMC5R is “full mMC5R agonists”.

Regarding Ac-[dPhe(4-I)]RW[dK]-NH2 [compound 40], on mMC4R [3], the “mMC4R antagonist pA2” value came to 7.6. In the case of “Ac-DPhe(pI)-DNal(2′)-Nal(2′)-DLys-NH2 [compound 34]”, the “mMC5R partial stimulation, % of the maximal NDP-MSH signal” value (“mMC5R partial stimulation, %” below) at mMC5R is 50%. For the compound `CC(=O)N[C@H](Cc1ccc2ccccc2c1)C(=O)N[C@@H](CCCNC(=N)N)C(=O)N[C@H](Cc1ccc(I)cc1)C(=O)N[C@H](CCCCN)C(N)=O` [19 | COR1-29-7, Ac-DNal(2’)-Arg-DPhe(pI)-DLys-NH2], the Ki on mMC3R [1] is 130 nM; at mMC4R [2], 3.2 nM.

With “Ac-DNal(2′)-DNal(2′)-Trp-DLys-NH2 [compound 4]”, the “mMC3R antagonist pA2” value on mMC3R [4] (NDP-MSH as agonist, HEK293 cells stably expressing mMC3R) is on record as 5.8. With `CC(=O)N[C@H](Cc1ccc2ccccc2c1)C(=O)N[C@H](Cc1ccc2ccccc2c1)C(=O)N[C@@H](Cc1c[nH]c2ccccc12)C(=O)N[C@H](CCCCN)C(N)=O` [4 | COR1-29-2, Ac-DNal(2’)-DNal(2’)-Trp-DLys-NH2] (Ac-[d2Nal][d2Nal]W[dK]-NH2), the results for the Ki on mMC3R [1] and on mMC4R [2] were 1600 nM and 200 nM, respectively. Take “Ac-DPhe(pI)-DNal(2′)-DNal(2′)-DLys-NH2 [compound 25]”: the “mMC4R antagonist pA2” value at mMC4R [3] was 6.3.

The compound `CC(=O)N[C@H](Cc1ccc(I)cc1)C(=O)N[C@H](Cc1ccc2ccccc2c1)C(=O)N[C@H](Cc1ccc2ccccc2c1)C(=O)N[C@H](CCCCN)C(N)=O` [25 | COR1-80, Ac-DPhe(pI)-DNal(2’)-DNal(2’)-DLys-NH2] (Ac-[dPhe(4-I)][d2Nal][d2Nal][dK]-NH2) displayed a Ki on mMC4R [2] of 500 nM. As to Ac-[d2Nal][d2Nal]WR-NH2 [compound 6], the “mMC5R partial stimulation, %” value on mMC5R is given as 45%. As to `CC(=O)N[C@H](Cc1ccc2ccccc2c1)C(=O)N[C@@H](CCCNC(=N)N)C(=O)N[C@@H](Cc1c[nH]c2ccccc12)C(=O)N[C@H](Cc1ccc2ccccc2c1)C(N)=O` [17 | COR1-60, Ac-DNal(2’)-Arg-Trp-DNal(2’)-NH2] (Ac-[d2Nal]RW[d2Nal]-NH2), the figures for the Ki at mMC3R [1] and on mMC4R [2] were 2000 nM and 100 nM, respectively.

For the compound “Ac-DNal(2′)-DNal(2′)-Nal(2′)-Arg-NH2 [compound 12]”, the “mMC5R partial stimulation, %” value on mMC5R stood at 40%. In the case of `CC(=O)N[C@H](Cc1ccc2ccccc2c1)C(=O)N[C@@H](CCCNC(=N)N)C(=O)N[C@H](Cc1ccc(I)cc1)C(=O)N[C@@H](CCCNC(=N)N)C(N)=O` [21 | COR2-105, Ac-DNal(2’)-Arg-DPhe(pI)-Arg-NH2] (Ac-[d2Nal]R[dPhe(4-I)]R-NH2), the Ki on mMC3R [1] is 79 nM; at mMC4R [2], 2.5 nM. On the same counts, the results for `CC(=O)N[C@H](Cc1ccc2ccccc2c1)C(=O)N[C@@H](CCCNC(=N)N)C(=O)N[C@H](Cc1ccc2ccccc2c1)C(=O)N[C@H](CCCCN)C(N)=O` [13 | COR1-29-5, Ac-DNal(2’)-Arg-DNal(2’)-DLys-NH2] (Ac-[d2Nal]R[d2Nal][dK]-NH2) are 1000 nM and 6.3 nM. As for “Ac-DPhe(pI)-DNal(2′)-Trp-Arg-NH2 [compound 30]”, the “mMC4R antagonist pA2” value on mMC4R [3] was determined as 5.6. Also, the “mMC5R agonist activity” value on mMC5R was “inactive”.

Turning to `CC(=O)N[C@H](Cc1ccc2ccccc2c1)C(=O)N[C@@H](CCCNC(=N)N)C(=O)N[C@@H](Cc1ccc2ccccc2c1)C(=O)N[C@H](CCCCN)C(N)=O` [22 | COR1-29-8, Ac-DNal(2’)-Arg-Nal(2’)-DLys-NH2] (Ac-[d2Nal]R[2Nal][dK]-NH2), the inhibition constant (Ki) on mMC3R [1] was 630 nM; on mMC4R [2], 16 nM.
